Reference: PubChem BioAssay AID2060505 (Molecular Pharmacology Branch, DTP, NCI, 2025)

Test system: 633275-114-R-J1-PDC complex spheroids, viability
Assay: Anticancer human tumor 633275-114-R-J1-PDC patient-derived endometrial adenocarcinoma cell line growth inhibition [GQUAD]
Conditions: for IC50: curve of first compound; for viability, T/C: stronger effect = lower value
Summary of the method: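 Multi-cell-type spheroids of tumor cells with HUVEC and mesenchymal stem cells, treated with drug combinations. Concentrations descend in half-log steps from near clinical Cmax, or from 10 microM where Cmax is unknown; viability read-out.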
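Also: spheroids exposed to the agents for seven days.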
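For viability, T/C in this document: percent of DMSO vehicle control viability which is 100%.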

Question: For `COc1ncnc(C2CC2)c1-c1ncc2cnn(Cc3ccc(-c4nc(C(F)(F)F)cn4C(C)C)cc3)c2n1` + CN(C)c1ccc(Nc2c3ccc(NC(=O)CCN4CCCC4)cc3nc3cc(NC(=O)CCN4CCCC4)ccc23)cc1, which IC50 (second compound 0.0316 µM) is on record?
Answer: The IC50 was greater than 10 µM.

Question: And the IC50 (second compound 0.1 µM)?
Answer: The IC50 was greater than 10 µM.

Question: And the IC50 (second compound 0.316 µM)?
Answer: Its IC50 is greater than 10 µM.

Question: What about the IC50 (second compound 1 µM) of the same compound?
Answer: Its IC50 is greater than 10 µM.

Question: And the IC50 (second compound 3.16 µM)?
Answer: Its IC50 is greater than 10 µM.

Question: And the IC50 (second compound 10 µM)?
Answer: Its IC50 is less than 0.0316 µM.

Question: What about the viability, T/C (second compound 0.0316 µM, first compound 0.0316 µM) of the same compound?
Answer: Its viability, T/C is 102%.

Question: And the viability, T/C (second compound 0.0316 µM, first compound 0.1 µM)?
Answer: The viability, T/C was 102%.

Question: And the viability, T/C (second compound 0.0316 µM, first compound 0.316 µM)?
Answer: Its viability, T/C is 84.5%.

Question: What about the viability, T/C (second compound 0.0316 µM, first compound 1 µM) of the same compound?
Answer: Its viability, T/C is 101%.

Question: And the viability, T/C (second compound 0.0316 µM, first compound 3.16 µM)?
Answer: The viability, T/C was 102%.

Question: And the viability, T/C (second compound 0.0316 µM, first compound 10 µM)?
Answer: Its viability, T/C is 95.4%.

Question: And the viability, T/C (second compound 0.1 µM, first compound 0.0316 µM)?
Answer: Its viability, T/C is 101%.

Question: What about the viability, T/C (second compound 0.1 µM, first compound 0.1 µM) of the same compound?
Answer: Its viability, T/C is 90.8%.

Question: What about the viability, T/C (second compound 0.1 µM, first compound 0.316 µM) of the same compound?
Answer: The viability, T/C was 88.4%.

Question: And the viability, T/C (second compound 0.1 µM, first compound 1 µM)?
Answer: The viability, T/C was 99%.

Question: And the viability, T/C (second compound 0.1 µM, first compound 3.16 µM)?
Answer: Its viability, T/C is 93.3%.

Question: And the viability, T/C (second compound 0.1 µM, first compound 10 µM)?
Answer: Its viability, T/C is 87.3%.

Question: What about the viability, T/C (second compound 0.316 µM, first compound 0.0316 µM) of the same compound?
Answer: Its viability, T/C is 86.8%.

Question: And the viability, T/C (second compound 0.316 µM, first compound 0.1 µM)?
Answer: Its viability, T/C is 103%.

Question: What about the viability, T/C (second compound 0.316 µM, first compound 0.316 µM) of the same compound?
Answer: The viability, T/C was 86.8%.

Question: And the viability, T/C (second compound 0.316 µM, first compound 1 µM)?
Answer: The viability, T/C was 94.5%.

Question: And the viability, T/C (second compound 0.316 µM, first compound 3.16 µM)?
Answer: The viability, T/C was 97.2%.

Question: And the viability, T/C (second compound 0.316 µM, first compound 10 µM)?
Answer: The viability, T/C was 94%.

Question: What about the viability, T/C (second compound 1 µM, first compound 0.0316 µM) of the same compound?
Answer: The viability, T/C was 89.3%.

Question: What about the viability, T/C (second compound 1 µM, first compound 0.1 µM) of the same compound?
Answer: Its viability, T/C is 97.9%.

Question: What about the viability, T/C (second compound 1 µM, first compound 0.316 µM) of the same compound?
Answer: Its viability, T/C is 92.6%.

Question: And the viability, T/C (second compound 1 µM, first compound 1 µM)?
Answer: Its viability, T/C is 69.2%.

Question: What about the viability, T/C (second compound 1 µM, first compound 3.16 µM) of the same compound?
Answer: Its viability, T/C is 96.6%.

Question: What about the viability, T/C (second compound 1 µM, first compound 10 µM) of the same compound?
Answer: Its viability, T/C is 92.3%.

Question: What about the viability, T/C (second compound 3.16 µM, first compound 0.0316 µM) of the same compound?
Answer: Its viability, T/C is 79.8%.

Question: And the viability, T/C (second compound 3.16 µM, first compound 0.1 µM)?
Answer: Its viability, T/C is 81.7%.

Question: What about the viability, T/C (second compound 3.16 µM, first compound 0.316 µM) of the same compound?
Answer: Its viability, T/C is 81.2%.

Question: What about the viability, T/C (second compound 3.16 µM, first compound 1 µM) of the same compound?
Answer: The viability, T/C was 76.1%.

Question: And the viability, T/C (second compound 3.16 µM, first compound 3.16 µM)?
Answer: Its viability, T/C is 84.4%.

Question: What about the viability, T/C (second compound 3.16 µM, first compound 10 µM) of the same compound?
Answer: The viability, T/C was 67.8%.

Question: And the viability, T/C (second compound 10 µM, first compound 0.0316 µM)?
Answer: The viability, T/C was 32.7%.

Question: And the viability, T/C (second compound 10 µM, first compound 0.1 µM)?
Answer: The viability, T/C was 30.2%.

Question: And the viability, T/C (second compound 10 µM, first compound 0.316 µM)?
Answer: The viability, T/C was 31.1%.

Question: What about the viability, T/C (second compound 10 µM, first compound 1 µM) of the same compound?
Answer: Its viability, T/C is 27.2%.

Question: And the viability, T/C (second compound 10 µM, first compound 3.16 µM)?
Answer: Its viability, T/C is 26.6%.

Question: What about the viability, T/C (second compound 10 µM, first compound 10 µM) of the same compound?
Answer: The viability, T/C was 12.8%.
